Assay results taken from patent publication US20230303544A1, “LMO2 PROTEIN INHIBITORS” (UNIVERSITY OF OXFORD, priority 2020, published 2023).
Several values for one entry are separate records, joined by “and”; a condition that tells them apart may be missing. Identical values can stand only once.

Columns and labels:
[1] = biological target: T1, LMO2-iDAb LMO2dm3 interaction (Homo sapiens, UniProt P25791); assay: LMO2-iDAb LMO2dm3 BRET assay; format: cell-based; details: 22 h; for inhibition of LMO2-iDAb LMO2dm3 interaction (in words): BRET competition, Abd concentration 1 (or 5), 10, 20 μM; for IC50: BRET dose response, HEK293T cells, 0.01-50 μM
T1 construct: LMO2 cDNA was cloned into the pEF-RLuc8-MCS and pEF-MCS-RLuc8 plasmids; expressed in transfected cells; host or cells: HEK293T
T1 sequence (P25791 1-158): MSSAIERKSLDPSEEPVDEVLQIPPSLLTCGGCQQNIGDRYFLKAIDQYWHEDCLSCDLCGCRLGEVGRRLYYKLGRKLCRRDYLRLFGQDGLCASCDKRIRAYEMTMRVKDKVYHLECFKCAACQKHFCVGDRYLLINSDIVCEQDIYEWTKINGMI
Method: For all BRET experiments (titration curves and competition assays) 650,000 HEK293T were seeded in each well of a 6 well plates. After 24 hours at 37° C., cells were transfected with a total of 1.6 μg of DNA mix, containing the donor+acceptor±competitor plasmids, using Lipofectamine 2000 transfection reagent (Thermo-Fisher). In dose response competition experiments, competitors were transfected with the following amount of DNA: 0.1; 0.5 and 1 μg. In single dose competition experiments, competitors were transfected with […] of DNA. Cells were detached 24 hours later, washed with PBS and seeded in a white 96-well plate (clear bottom, PerkinElmer, Cat #6005181) in OptiMEM no phenol red medium complemented with 4% FBS and cells were incubated for an additional 20-24 hours at 37° C. before the BRET assay reading. A detailed BRET protocol is provided by Bery and Rabbitts, (2019).
Compounds were prepared in 100% DMSO at 10 mM. For BRET competition assays, cells were treated with the indicated compounds at concentration of 1 (or 5), 10 and 20 μM for 22 h. For BRET-based dose response experiments, cells were treated with compounds at concentration of 0.01, 0.1, 1, 4, 10, 25 and 50 μM for 22 h. The compounds were diluted in the BRET medium: OptiMEM no phenol red (Life Technologies) supplemented with 4% FBS and with a final concentration of 0.2% DMSO.
BRET2 signal was determined immediately after injection of coelenterazine 400a substrate (10 μM final) to cells (Cayman Chemicals), using a CLARIOstar instrument (BMG Labtech) with a luminescence module. Total GFP^2 fluorescence was detected with excitation and emission peaks set at 405 nm and 515 nm respectively. Total RLuc8 luminescence was measured with the Luminescence 400-700 nm-wavelength filter.
The BRET signal or BRET ratio corresponds to the light emitted by the GFP^2 acceptor constructs (515 nm±30) upon addition of coelenterazine 400a divided by the light emitted by the RLuc8 donor constructs (410 nm±80). The background signal is subtracted from that BRET ratio using the donor-only negative control where only the RLuc8 fusion plasmid is transfected into the cells. The normalized BRET ratio is the BRET ratio normalized to a negative control (iDAb control or DMSO control) during a competition assay. Total GFP^2 and RLuc8 signals were used to control the protein expression from each plasmid.

[2] = test system: Caco-2 human colon carcinoma cell line; assay: Caco-2 permeability assay; format: in vitro ADME; details: 10 μM, 2 hours, 37° C.
Method: Caco-2 apparent permeability (Papp) was determined in the Caco-2 human colon carcinoma cell line as described (Bavetsias et al., 2016). Cells were maintained (DMEM with 10% fetal bovine serum, penicillin, and streptomycin) in a humidified atmosphere with 5% CO2/95% air for 10 days. Cells were plated out onto a cell culture assembly plate (Millipore, UK), and monolayer confluency was checked using a TEER electrode prior to the assay. Media was washed off and replaced with HBSS buffer (pH7.4) containing compound (10 μM, 1% DMSO) in the appropriate apical and basal donor wells. HBSS buffer alone was placed in acceptor wells. In particular instances a specific P-gp inhibitor, LY335979 (5 μM), was added to the HBSS. The Caco-2 plate was incubated for 2 hours at 37° C. Samples from the apical and basolateral chambers were analysed using a Waters (Milford, MA, US) TQ-S LC-MS/MS system. The cell permeability properties of Abd-L compounds was compared to low (nadolol) and high (antipyrine) permeability compounds and a compound with high export (indinavir).
Apparent permeability (Papp) was determined as follows: […]

[3] = Parallel artificial membrane permeability assay (PAMPA); format: in vitro ADME; details: 10 μM donor, pH 5, 6.5 and 7.4, 16 hours, 30° C.
Method: The parallel artificial membrane permeability assay (PAMPA) was used to determine compound permeability by passive diffusion. The assay used an artificial membrane consisting of 2% phosphatidyl choline in dodecane (Sigma Aldrich, Dorset, UK). The donor plate was a MultiScreen-IP Plate with 0.45 μm hydrophobe Immobilon-P Membrane (Millipore, UK) and the acceptor plate was a MultiScreen 96-well Transport Receiver Plate (Millipore, UK). The permeability was measured at 3 different pH levels: pH 5, 6.5 and pH 7.4 in buffer containing 1% Bovine Serum Albumin (Sigma Aldrich, Dorset, UK). A 10 mM DMSO stock solution of test compound was used to prepare the 10 μM PAMPA donor solutions and calibration curves in each of the three buffers.
6 μL of the membrane solution was added to each well of the donor plate. Buffer donor solutions (200 μL) were added to the appropriate wells of the PAMPA donor plate. 300 µL per well of blank PBS (pH 7.4) was added to the PAMPA acceptor plate.
The donor and acceptor plates were then sandwiched together, covered with a lid and incubated at 30° C. in a humid environment for 16 hours. After the incubation period the plates were removed from the incubator and the sandwich was dismantled. […] All sample supernatants were diluted and analysed using a Waters (Milford, MA, US) TQ-S LC-MS/MS system.
Permeability values (cm/s) were calculated using the following equation: […]

LMO2-LID = biological target: T2, LMO2-LID (Homo sapiens, UniProt P25791); assay: WaterLOGSY NMR binding to LMO2-LID; details: RT
T2 construct: made in house; host or cells: E. coli BL21(DE3)-Rosetta2 pLysS
T2 sequence (P25791 26-156 limits assumed): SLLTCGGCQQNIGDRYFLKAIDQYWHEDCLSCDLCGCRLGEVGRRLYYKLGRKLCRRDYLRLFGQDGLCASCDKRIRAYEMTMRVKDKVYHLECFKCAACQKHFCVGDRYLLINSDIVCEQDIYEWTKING
T2 sequence (Q86U70 336-375 partner limits assumed): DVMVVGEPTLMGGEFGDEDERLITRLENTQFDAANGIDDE
Method: (§1) WaterLOGSY NMR method was used to measure LMO2 ligand interaction (Bataille et al., 2020). WaterLOGSY experiments were conducted at a ^1H frequency of 600 MHz using a Bruker Avance spectrometer equipped with a BBI probe. All experiments were conducted at RT. 3 mm diameter NMR tubes with a sample volume of 200 μL were used for all experiments. For LMO2-LID, solutions were buffered using a 10 mM NaPO4, 250 mM NaCl solution. For LMO2-ΔLID, solutions were buffered using a 10 mM NaPO4, 50 mM NaCl solution. The sample preparation for measuring ligand binding with LMO2-LID is exemplified as follows; the compound (10 μL of a 10 mM solution in DMSO-d6) was added to an Eppendorf tube before sequential addition of the appropriate buffer (90 μL), D2O (20 μL), and the protein (80 μL, 25 μM). The resulting solution was vortexed to mix and transferred to a 3 mm NMR tube prior to the NMR analysis. The sample preparation for measuring ligand binding with LMO2-ΔLID is exemplified as follows; the compound (10 μL of a 10 mM solution in DMSO-d6) was added to an Eppendorf tube before sequential addition of the appropriate buffer (162 μL), D2O (20 μL), and the protein (8 μL, 250 μM). The resulting solution was vortexed to mix and transferred to a 3 mm NMR tube prior to the NMR analysis. […]

LMO2-ΔLID = biological target: T3, LMO2-ΔLID (Homo sapiens, UniProt P25791); assay: WaterLOGSY NMR binding to LMO2-ΔLID; details: RT
T3 construct: UniProt P25791; residues 26-156; hexa-histidine tag (N, cleaved yes); SUMO (N, cleaved yes); made in house; host or cells: E. coli Lemo21(DE3)
T3 sequence (P25791 with tags, fused parts or gaps): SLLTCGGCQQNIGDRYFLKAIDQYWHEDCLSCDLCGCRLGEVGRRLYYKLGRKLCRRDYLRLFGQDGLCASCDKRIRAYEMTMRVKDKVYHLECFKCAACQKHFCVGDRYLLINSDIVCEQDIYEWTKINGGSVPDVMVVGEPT
Method: as §1

Row | Compound | inhibition of LMO2-iDAb LMO2dm3 interaction (in words) [1] | IC50 [1] | other results
1 | CS(=O)(=O)Nc1ccccc1NC(=O)c1cnc(N2CCN(Cc3ccccc3)C2=O)s1 [Abd-L5, 2-(3-benzyl-2-oxoimidazolidin-1-yl)-N-(2-(methylsulfonamido)phenyl)thiazole-5-carboxamide] | unable to inhibit | – | –
2 | COc1cccc(CN2CCN(c3nc(C(=O)Nc4ccc(OCc5ccccc5)cc4)cs3)CC2)c1 [Abd-L17, N-(4-(benzyloxy)phenyl)-2-(4-(3-methoxybenzyl)piperazin-1-yl)thiazole-4-carboxamide] | – | 13 µM | –
3 | COc1cccc(CN2CCN(c3nc(C(=O)Nc4ccc(OCc5ccccc5)cc4)co3)C2=O)c1 [Abd-L9, N-(4-(benzyloxy)phenyl)-2-(3-(3-methoxybenzyl)-2-oxoimidazolidin-1-yl)oxazole-4-carboxamide] | most potent inhibitor | 1.5 µM | Caco-2 cell permeability (in words) [2]: low transport; Caco-2 efflux (in words) [2]: low efflux ratio; PAMPA permeability (in words) [3]: best properties; binding to LMO2-LID by waterLOGSY NMR (LMO2-LID): not; binding to LMO2-ΔLID by waterLOGSY NMR (LMO2-ΔLID): bind and showed binding and Direct binding
4 | COc1ccc(NC(=O)c2cnc(N3CCN(Cc4ccc(Cl)cc4)C3=O)o2)cc1OC [Abd-L8, 2-(3-(4-chlorobenzyl)-2-oxoimidazolidin-1-yl)-N-(3,4-dimethoxyphenyl)oxazole-5-carboxamide] | unable to inhibit | – | –
5 | COc1cccc(CN2CCN(c3nc(C(=O)Nc4ccc(-n5cccc5)cc4)co3)CC2)c1 [Abd-L15, N-(4-(1H-pyrrol-1-yl)phenyl)-2-(4-(3-methoxybenzyl)piperazin-1-yl)oxazole-4-carboxamide] | – | 16.6 µM | –
6 | O=C(NCCc1ccccc1)c1cnc(N2CCN(Cc3ccc(Cl)cc3)C2=O)o1 [Abd-L11, 2-(3-(4-chlorobenzyl)-2-oxoimidazolidin-1-yl)-N-phenethyloxazole-5-carboxamide] | unable to inhibit | – | –
7 | COc1cccc(CN2CCN(c3nc(C(=O)Nc4ccc(-n5cccc5)cc4)cs3)CC2)c1 [Abd-L18, N-(4-(1H-pyrrol-1-yl)phenyl)-2-(4-(3-methoxybenzyl)piperazin-1-yl)thiazole-4-carboxamide] | – | 15.8 µM | –
8 | COc1cccc(CN2CCCN(c3nc(C(=O)Nc4ccc(-n5cccc5)cc4)co3)C2=O)c1 [Abd-L24, N-(4-(1H-pyrrol-1-yl)phenyl)-2-(3-(3-methoxybenzyl)-2-oxotetrahydropyrimidin-1(2H)-yl)oxazole-4-carboxamide] | do not affect | – | –
9 | COc1cccc(CN2CCN(c3nc(C(=O)Nc4ccc(OCc5ccccc5)cc4)co3)CC2)c1 [Abd-L16, N-(4-(benzyloxy)phenyl)-2-(4-(3-methoxybenzyl)piperazin-1-yl)oxazole-4-carboxamide] | – | 1.2 µM | –
10 | COc1ccc(CN2CCN(c3nc(C(=O)Nc4ccc(-n5cccc5)cc4)co3)CC2)cc1 [Abd-L19, N-(4-(1H-pyrrol-1-yl)phenyl)-2-(4-(4-methoxybenzyl)piperazin-1-yl)oxazole-4-carboxamide] | – | 48.8 µM | –
11 | O=C(NCc1ccc(Oc2ccccc2)cc1)c1coc(N2CCN(Cc3ccccc3)C2=O)n1 [Abd-L13, 2-(3-benzyl-2-oxoimidazolidin-1-yl)-N-(4-phenoxybenzyl)oxazole-4-carboxamide] | – | – | binding to LMO2-LID by waterLOGSY NMR (LMO2-LID): not; binding to LMO2-ΔLID by waterLOGSY NMR (LMO2-ΔLID): bind and showed binding and Direct binding
12 | COc1cccc(CN2CCN(c3nccc(C(=O)Nc4ccc(-n5cccc5)cc4)n3)CC2)c1 [Abd-L25, N-(4-(1H-pyrrol-1-yl)phenyl)-2-(4-(3-methoxybenzyl)piperazin-1-yl)pyrimidine-4-carboxamide] | do not affect | – | –
13 | N#Cc1cccc(CN2CCN(c3nc(C(=O)Nc4ccc(-n5cccc5)cc4)co3)C2=O)c1 [Abd-L10, N-(4-(1H-pyrrol-1-yl)phenyl)-2-(3-(3-cyanobenzyl)-2-oxoimidazolidin-1-yl)oxazole-4-carboxamide] | – | ~1 µM and 1 µM | –
